According to ChEMBL document CHEMBL4483862, “Open-source discovery of chemical leads for next-generation chemoprotective antimalarials” (2018):
pIC50: −log10 of the molar value.

Tested on: Plasmodium berghei
Test: Luciferase/luciferin-expressing antifolate-resistant parasites were used to infect a culture of HepG2 cells that were pre-incubated with compounds. Infected hepatocytes emit light due to the luciferase reaction. Assay results are presented as the percent inhibition of light emission compared to control. […]
Assay type: functional
Conditions: sporozoite; for IC90: read-out: LUCIFERASE INFECTION ASSAY - IC90

Compound	IC90 [µM]	other results
Oc1cc(C(F)(F)F)nc2c(C(F)(F)F)cccc12	5.16	pIC50 (FFLUC_HILL_SLOPE 0.264, FFLUC_R_SQUARED 0.18, PBLUC_HILL_SLOPE 9.49, PBLUC_R_SQUARED 0.416, read-out: LUCIFERASE INFECTION ASSAY - IC50): 5.39
Cc1noc(-c2ccc(Cl)cc2)c1C(=O)ON=C(N)c1ccc(C(C)(C)C)cc1	> 8.01	pIC50 (FFLUC_HILL_SLOPE 0.0669, FFLUC_R_SQUARED 0.264, read-out: LUCIFERASE INFECTION ASSAY - IC50): < 5.10
COc1ccc(NC(=O)C2Cc3c(-c4cccc(C(C)=O)c4)ccnc3O2)cc1OC (stereo not given)	> 7.89	pIC50 (FFLUC_HILL_SLOPE 0.226, FFLUC_R_SQUARED 0.216, HEPG2TOX_HILL_SLOPE 3.1, HEPG2TOX_R_SQUARED 0.695, PBLUC_HILL_SLOPE 3.79, PBLUC_R_SQUARED 0.351, read-out: LUCIFERASE INFECTION ASSAY - IC50): 5.31
CC1(C(=O)NCc2cccs2)Cc2c(-c3ccccc3)ccnc2O1 (stereo not given)	> 9.42	pIC50 (FFLUC_HILL_SLOPE 0.144, FFLUC_R_SQUARED 0.18, HEPG2TOX_HILL_SLOPE 3.88, HEPG2TOX_R_SQUARED 0.701, PBLUC_HILL_SLOPE 8.35, PBLUC_R_SQUARED 0.0479, read-out: LUCIFERASE INFECTION ASSAY - IC50): 5.11
N#CC(=C1NS(=O)(=O)c2ccccc21)c1nc(C23CC4CC(CC(C4)C2)C3)cs1	1.97	pIC50 (FFLUC_HILL_SLOPE 0.216, FFLUC_R_SQUARED 0.688, PBLUC_HILL_SLOPE 0.978, PBLUC_R_SQUARED 0.875, read-out: LUCIFERASE INFECTION ASSAY - IC50): 6.68
O=C(N/N=C/c1c(-c2ccccc2)nc2sc3c(n12)CCCC3)c1ccc(Br)cc1	8.36	pIC50 (FFLUC_HILL_SLOPE 0.19, FFLUC_R_SQUARED 0.758, PBLUC_HILL_SLOPE 1.28, PBLUC_R_SQUARED 0.573, read-out: LUCIFERASE INFECTION ASSAY - IC50): 5.82
CCCCNC(=O)c1c(NC(=O)c2ccc(F)c(F)c2)nc2ccc(C)cn12	3.54	pIC50 (FFLUC_HILL_SLOPE 0.0723, FFLUC_R_SQUARED 0.0194, HEPG2TOX_HILL_SLOPE 0.765, HEPG2TOX_R_SQUARED 0.862, PBLUC_HILL_SLOPE 1.87, PBLUC_R_SQUARED 0.784, read-out: LUCIFERASE INFECTION ASSAY - IC50): 5.96
OC(c1cc(F)c(F)c(F)c1)c1nnc(Nc2ccc(F)c(Cl)c2)s1 (stereo not given)	> 10	pIC50 (FFLUC_HILL_SLOPE 0.27, FFLUC_R_SQUARED 0.307, PBLUC_HILL_SLOPE 3.7, PBLUC_R_SQUARED 0.113, read-out: LUCIFERASE INFECTION ASSAY - IC50): 5.05
CCOC(=O)c1sc(-c2ccccc2)cc1NC(=O)COC(=O)c1c2c(nc3ccccc13)CCC(C)C2 (stereo not given)	> 10	pIC50 (FFLUC_HILL_SLOPE 0.238, FFLUC_R_SQUARED 0.508, read-out: LUCIFERASE INFECTION ASSAY - IC50): < 5.00
CCc1cccc2c(C(=O)COC(=O)c3ccc(S(C)(=O)=O)c([N+](=O)[O-])c3)c[nH]c12	6.57	pIC50 (FFLUC_HILL_SLOPE 0.275, FFLUC_R_SQUARED 0.382, HEPG2TOX_HILL_SLOPE 0.775, HEPG2TOX_R_SQUARED 0.837, PBLUC_HILL_SLOPE 46.1, PBLUC_R_SQUARED 0.262, read-out: LUCIFERASE INFECTION ASSAY - IC50): 5.20
CC(C)NC(=O)c1c(NC(=O)c2ccc(Cl)cc2Cl)nc2ccccn12	3.78	pIC50 (FFLUC_HILL_SLOPE 0.259, FFLUC_R_SQUARED 0.0893, HEPG2TOX_HILL_SLOPE 15, HEPG2TOX_R_SQUARED 0.814, PBLUC_HILL_SLOPE 11.2, PBLUC_R_SQUARED 0.466, read-out: LUCIFERASE INFECTION ASSAY - IC50): 5.51
CCC(C)NC(=O)c1c(NC(=O)c2cccc(F)c2)nc2ccc(C)cn12 (stereo not given)	2.91	pIC50 (FFLUC_HILL_SLOPE 0.281, FFLUC_R_SQUARED 0.0242, HEPG2TOX_HILL_SLOPE 2.05, HEPG2TOX_R_SQUARED 0.911, PBLUC_HILL_SLOPE 3.14, PBLUC_R_SQUARED 0.667, read-out: LUCIFERASE INFECTION ASSAY - IC50): 5.84
Cc1cc(-c2cn3c(-c4cccc(O)c4)cnc3cn2)cc(C)c1O	> 9.96	pIC50 (FFLUC_HILL_SLOPE 0.138, FFLUC_R_SQUARED 0.042, HEPG2TOX_HILL_SLOPE 1.55, HEPG2TOX_R_SQUARED 0.983, PBLUC_HILL_SLOPE 3.3, PBLUC_R_SQUARED 0.553, read-out: LUCIFERASE INFECTION ASSAY - IC50): 5.16
O=[N+]([O-])c1cc(C(F)(F)F)ccc1Sc1nnc(-c2ccc(Cl)cc2)[nH]1	> 8.23	pIC50 (FFLUC_HILL_SLOPE 0.154, FFLUC_R_SQUARED 0.106, read-out: LUCIFERASE INFECTION ASSAY - IC50): < 5.08
Clc1ccc(-n2nnnc2Sc2ncnc3sc4c(c23)CCC4)cc1	> 10	pIC50 (FFLUC_HILL_SLOPE 0.273, FFLUC_R_SQUARED 0.315, read-out: LUCIFERASE INFECTION ASSAY - IC50): < 5.00
N#CC1(c2ccccc2)C/C(=C\c2cccs2)C(=O)/C(=C/c2cccs2)C1 (stereo not given)	> 10	pIC50 (FFLUC_HILL_SLOPE 0.232, FFLUC_R_SQUARED 0.325, read-out: LUCIFERASE INFECTION ASSAY - IC50): < 5.00
COc1ccc(CC2(Cc3ccc(OC)c(F)c3)C(=O)N(c3ccccc3C)C(=O)c3ccccc32)cc1F	> 10	pIC50 (FFLUC_HILL_SLOPE 0.212, FFLUC_R_SQUARED 0.0258, read-out: LUCIFERASE INFECTION ASSAY - IC50): < 5.00
CC(C)N1C(=O)/C(=N\NC(=S)Nc2cccnc2)c2ccccc21	5.01	pIC50 (FFLUC_HILL_SLOPE 0.241, FFLUC_R_SQUARED 0.177, HEPG2TOX_HILL_SLOPE 1.23, HEPG2TOX_R_SQUARED 0.88, PBLUC_HILL_SLOPE 2.27, PBLUC_R_SQUARED 0.476, read-out: LUCIFERASE INFECTION ASSAY - IC50): 5.72
Cc1ccc2nc(NC(=O)c3ccccc3)c(C(=O)NC3CCCCC3)n2c1	3.2	pIC50 (FFLUC_HILL_SLOPE 0.276, FFLUC_R_SQUARED 0.15, HEPG2TOX_HILL_SLOPE 1.74, HEPG2TOX_R_SQUARED 0.886, PBLUC_HILL_SLOPE 12, PBLUC_R_SQUARED 0.694, read-out: LUCIFERASE INFECTION ASSAY - IC50): 5.58
CCOC(=O)c1cc(-c2ccccc2)sc1NC(=O)CSc1nnc(-c2ccc(C(C)(C)C)cc2)n1-c1ccccc1	> 10	pIC50 (FFLUC_HILL_SLOPE 0.186, FFLUC_R_SQUARED 0.0278, read-out: LUCIFERASE INFECTION ASSAY - IC50): < 5.00
Cc1cccc(-c2cc(NC=O)c3ncc(-c4ccc(S(C)(=O)=O)cc4)n3c2)c1	> 8.14	pIC50 (FFLUC_HILL_SLOPE 0.295, FFLUC_R_SQUARED 0.0341, HEPG2TOX_HILL_SLOPE 11.3, HEPG2TOX_R_SQUARED 0.289, read-out: LUCIFERASE INFECTION ASSAY - IC50): < 5.09
COc1ccc(CNc2nc(C)nc3scc(-c4ccccc4)c23)cc1	6.87	pIC50 (FFLUC_HILL_SLOPE 0.195, FFLUC_R_SQUARED 0.119, HEPG2TOX_HILL_SLOPE 2.5, HEPG2TOX_R_SQUARED 0.976, PBLUC_HILL_SLOPE 4.55, PBLUC_R_SQUARED 0.142, read-out: LUCIFERASE INFECTION ASSAY - IC50): 5.37
NCc1cccc(-c2cc(-c3cc(C(F)(F)F)cc(C(F)(F)F)c3)cnc2N)c1	> 8.02	pIC50 (FFLUC_HILL_SLOPE 0.255, FFLUC_R_SQUARED 0.011, PBLUC_HILL_SLOPE 2.95, PBLUC_R_SQUARED 0.223, read-out: LUCIFERASE INFECTION ASSAY - IC50): 5.10
CC(C)(C)C(=O)CC(=O)Nc1ccc(C(F)(F)F)cc1	> 11.5	pIC50 (FFLUC_HILL_SLOPE 0.143, FFLUC_R_SQUARED 0.0864, PBLUC_HILL_SLOPE 0.817, PBLUC_R_SQUARED 0.0775, read-out: LUCIFERASE INFECTION ASSAY - IC50): < 4.94
Cc1cc(C)cc(C(=O)N(C)CC(=O)N2CCCC2)c1	> 10	pIC50 (FFLUC_HILL_SLOPE 0.201, FFLUC_R_SQUARED 0.0577, read-out: LUCIFERASE INFECTION ASSAY - IC50): < 5.00
COc1ccc(CNC(=O)N(C)CCOc2ccc(OC)cc2)cc1	> 10	pIC50 (FFLUC_HILL_SLOPE 0.273, FFLUC_R_SQUARED 0.253, HEPG2TOX_HILL_SLOPE 16.5, HEPG2TOX_R_SQUARED 0.443, PBLUC_HILL_SLOPE 9.82, PBLUC_R_SQUARED 0.776, read-out: LUCIFERASE INFECTION ASSAY - IC50): 5.07
OCc1cccc(-c2cnc3cnc(-c4ccc(CNc5ccccc5)cc4)cn23)c1	> 8.12	pIC50 (FFLUC_HILL_SLOPE 0.18, FFLUC_R_SQUARED 0.146, PBLUC_HILL_SLOPE 3.27, PBLUC_R_SQUARED 0.516, read-out: LUCIFERASE INFECTION ASSAY - IC50): 5.20
COc1ccccc1NS(=O)(=O)c1ccc(NNC(=S)Nc2cc(C)cc(C)c2)c([N+](=O)[O-])c1	> 10	pIC50 (FFLUC_HILL_SLOPE 0.289, FFLUC_R_SQUARED 0.0194, HEPG2TOX_HILL_SLOPE 0.191, HEPG2TOX_R_SQUARED 0.347, PBLUC_HILL_SLOPE 3.05, PBLUC_R_SQUARED 0.49, read-out: LUCIFERASE INFECTION ASSAY - IC50): 5.24
N#C/C(=C\c1sccc1Oc1ccccc1)S(=O)(=O)c1ccc(C(F)(F)F)cn1	> 7.56	pIC50 (FFLUC_HILL_SLOPE 0.259, FFLUC_R_SQUARED 0.0664, read-out: LUCIFERASE INFECTION ASSAY - IC50): < 5.12
COc1ccc(N(CCC(N)=O)C(=O)CSc2nc3ccccc3n2-c2ccc(OC)cc2)cc1	> 10	pIC50 (FFLUC_HILL_SLOPE 0.23, FFLUC_R_SQUARED 0.0771, read-out: LUCIFERASE INFECTION ASSAY - IC50): < 5.00
